Like-named read-outs stand apart in the source and are kept apart here.
Key:
Experiment in all cases: SPR
Type in all cases: binding
[1] = target: T1, serine hydroxymethyltransferase 2 (SHMT2) (Homo sapiens, UniProt P34897)
T1 sequence (P34897 22-504 limits assumed): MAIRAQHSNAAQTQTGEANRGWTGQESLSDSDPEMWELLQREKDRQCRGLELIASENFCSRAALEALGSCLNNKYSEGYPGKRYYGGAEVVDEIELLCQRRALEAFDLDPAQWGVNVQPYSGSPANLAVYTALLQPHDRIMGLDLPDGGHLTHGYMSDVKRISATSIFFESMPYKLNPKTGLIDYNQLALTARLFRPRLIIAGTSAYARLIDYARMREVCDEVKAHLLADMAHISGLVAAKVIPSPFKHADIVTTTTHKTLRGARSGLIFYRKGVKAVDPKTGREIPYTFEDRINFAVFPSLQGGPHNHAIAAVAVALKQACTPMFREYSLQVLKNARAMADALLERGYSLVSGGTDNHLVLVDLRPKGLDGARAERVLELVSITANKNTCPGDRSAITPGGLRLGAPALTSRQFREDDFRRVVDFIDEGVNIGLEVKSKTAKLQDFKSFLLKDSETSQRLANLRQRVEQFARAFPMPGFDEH

SHMT1 = target: T2, SHMT1 (Homo sapiens, UniProt P34896)
T2 sequence (P34896 2-483): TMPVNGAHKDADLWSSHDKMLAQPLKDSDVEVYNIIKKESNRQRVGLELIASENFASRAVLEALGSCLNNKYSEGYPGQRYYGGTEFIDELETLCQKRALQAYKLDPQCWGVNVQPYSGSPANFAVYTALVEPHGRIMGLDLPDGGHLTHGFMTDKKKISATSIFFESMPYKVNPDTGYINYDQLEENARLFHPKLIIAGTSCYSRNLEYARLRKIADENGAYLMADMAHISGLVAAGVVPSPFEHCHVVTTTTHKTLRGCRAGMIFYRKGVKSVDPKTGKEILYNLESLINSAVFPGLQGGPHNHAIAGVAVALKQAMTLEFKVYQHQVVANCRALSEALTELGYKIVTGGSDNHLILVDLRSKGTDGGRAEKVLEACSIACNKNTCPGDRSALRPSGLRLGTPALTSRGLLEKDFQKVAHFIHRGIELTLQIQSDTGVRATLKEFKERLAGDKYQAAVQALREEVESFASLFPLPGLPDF

[2] = target: T1, serine hydroxymethyltransferase 2 (SHMT2); remark: listed apart in the source

CC1(C)[C@@H](OC(=O)CCC(=O)O)CC[C@]2(C)[C@H]3C(=O)C=C4[C@@H]5C[C@@](C)(C(=O)O)CC[C@]5(C)CC[C@@]4(C)[C@]3(C)CC[C@@H]12 [CBX, Carbenoxolone]
Kd [1]: 15.1 µM

Nc1nc2c(c(=O)[nH]1)NC(CNc1ccc(C(=O)N[C@@H](CCC(=O)O)C(=O)O)cc1)CN2 (stereo partly shown) [THF, Tetrahydrofolic acid]
Kd [1]: 3.51 µM

CC1(C)[C@@H](O)CC[C@]2(C)[C@H]3C(=O)C=C4[C@@H]5C[C@@](C)(C(=O)O)CC[C@]5(C)CC[C@@]4(C)[C@]3(C)CC[C@@H]12 [GA, Glycyrrhetinic acid]
Kd (SHMT1): 2.37 µM
Kd [2]: 2.9 µM
